SMILES	melting point [°C]
COc1cc2[nH]c(N(C)Cc3cccc(/N=C(\C)N(C)C)c3)nc(=O)c2cc1OC [Example 70, N′-(3-{[(6,7-Dimethoxy-4-oxo-1,4-dihydro-quinazolin-2-yl)-methyl-amino]-methyl}-phenyl)-N,N-dimethyl-acetamidine]	221.8 to 223
CCN(C)Cc1cccc(CN(C)c2nc(=O)c3c(C)c(OC)c(OC)cc3[nH]2)c1 [Example 71, 2-({3-[(Ethyl-methyl-amino)-methyl]-benzyl}-methyl-amino)-6,7-dimethoxy-5-methyl-1H-quinazolin-4-one]	146.7 to 150.8
COc1cc2[nH]c(NCc3cccc(/N=C(\C)N(C)C)c3)nc(=O)c2c(C)c1OC [Example 72, N′-{3-[(6,7-Dimethoxy-5-methyl-4-oxo-1,4-dihydro-quinazolin-2-ylamino)-methyl]-phenyl}-N,N-dimethyl-acetamide]	173 to 175
COc1ccnc(N2CCN(c3nc(=O)c4c(OC)c(OC)c(OC)cc4[nH]3)CC2)c1 [Example 73, 5,6,7-Trimethoxy-2-[4-(4-methoxy-pyridin-2-yl)-piperazin-1-yl]-1H-quinazolin-4-one]	229 to 231
COc1cc2c(=O)nc(N(C)Cc3cccc(/N=C(\C)N(C)C)c3)[nH]c2cc1Cl [Example 74, N′-(3-{[(7-Chloro-6-methoxy-4-oxo-1,4-dihydro-quinazolin-2-yl)-methyl-amino]-methyl}-phenyl)-N,N-dimethyl-acetamide]	185.4 to 191.9
COc1cc2[nH]c(N(C)Cc3cccc(N4CCC(C)C4=O)c3)nc(=O)c2c(OC)c1OC (stereo not drawn) [Example 75, 5,6,7-Trimethoxy-2-{methyl-[3-(3-methyl-2-oxo-pyrrolidin-1-yl)-benzyl]-amino}-1H-quinazolin-4-one]	156.4 to 162
COc1cc2[nH]c(N(C)Cc3cccc(N4CCNC4=O)c3)nc(=O)c2c(C)c1OC [Example 76, 6,7-Dimethoxy-5-methyl-2-{methyl-[3-(2-oxo-imidazolidin-1-yl)-benzyl]-amino}-1H-quinazolin-4-one]	265 to 266
COCCNCc1cccc(CN(C)c2nc(=O)c3c(C)c(OC)c(OC)cc3[nH]2)c1 [Example 77]	150 to 152.1
COc1cc2[nH]c(N(C)Cc3cccc(NC4=NCCC4)c3)nc(=O)c2cc1OC [Example 87, 2-{[3-(4,5-Dihydro-3H-pyrrol-2-ylamino)-benzyl]-methyl-amino}-6,7-dimethoxy-1H-quinazolin-4-one]	211 to 214
COc1cc2[nH]c(N(C)Cc3cccc(NC4=NCCN4)c3)nc(=O)c2cc1OC [Example 89, 2-{[3-(4,5-Dihydro-1H-imidazol-2-ylamino)-benzyl]-methyl-amino}-6,7-dimethoxy-1H-quinazolin-4-one]	163.8 to 176.9
COc1cc2[nH]c(N(C)Cc3cccc(N4C=NC(C)(C)C4)c3)nc(=O)c2cc1OC [Example 90, 2-{[3-(4,4-Dimethyl-4,5-dihydro-imidazol-1-yl)-benzyl]-methyl-amino}-6,7-dimethoxy-1H-quinazolin-4-one]	240 to 242
COc1cc2[nH]c(N(C)CCc3cccc(/N=C(\C)N(C)C)c3)nc(=O)c2cc1OC [Example 91, N′-(3-{2-[(6,7-Dimethoxy-4-oxo-1,4-dihydro-quinazolin-2-yl)-methyl-amino]-ethyl}-phenyl)-N,N-dimethyl-acetamidine]	135 to 138.1
CNc1cccc(CN(C)c2nc(=O)c3c(C)c(OC)c(OC)cc3[nH]2)c1 [Example 102, 6,7-Dimethoxy-5-methyl-2-[methyl-(3-methylamino-benzyl)-amino]-1H-quinazolin-4-one]	195.9 to 197.9
COc1cc2[nH]c(N(C)Cc3cccc(N)c3)nc(=O)c2c(OC)c1OC [Example 103, 2-[(3-Amino-benzyl)-methyl-amino]-5,6,7-trimethoxy-1H-quinazolin-4-one]	225 to 226.5
COc1cc2[nH]c(N(C)Cc3cccc(CC#N)c3)nc(=O)c2c(OC)c1OC [Example 107, (3-{[Methyl-(5,6,7-trimethoxy-4-oxo-1,4-dihydro-quinazloin-2-yl)-amino]-methyl}-phenyl)-acetonitrile]	149.5 to 153.3
COc1cc2[nH]c(N(C)Cc3cccc(CN4CCOCC4)c3)nc(=O)c2c(OC)c1OC [Example 110, 5,6,7-Trimethoxy-2-[methyl-(3-morpholin-4-ylmethyl-benzyl)-amino]-1H-quinazolin-4-one]	160 to 162.1
CNCc1cccc(CN(C)c2nc(=O)c3c(OC)c(OC)c(OC)cc3[nH]2)c1 [Example 111, 5,6,7-Trimethoxy-2-[methyl-(3-methylaminomethyl-benzyl)-amino]-1H-quinazolin-4-one]	124.9 to 127.6
CCNCc1cccc(CN(C)c2nc(=O)c3c(C)c(OC)c(OC)cc3[nH]2)c1 [Example 113, 2-[(3-Ethylaminomethyl-benzyl)-methyl-amino]-6,7-dimethoxy-5-methyl-1H-quinazolin-4-one]	158.2 to 158.9

SMILES	melting point [°C]
CCN(C)Cc1cccc(CN(C)c2nc(=O)c3c(OC)c(OC)c(OC)cc3[nH]2)c1 [Example 114, 2-({3-[(Ethyl-methyl-amino)-methyl]-benzyl}-methyl-amino)-5,6,7-trimethoxy-1H-quinazolin-4-one]	106.5 to 108.9
COCC(=O)N(C)Cc1cccc(CN(C)c2nc(=O)c3c(C)c(OC)c(OC)cc3[nH]2)c1 [Example 119, N-(3-{[(6,7-Dimethoxy-5-methyl-4-oxo-1,4-dihydro-quinazolin-2-yl)-methyl-amino]-methyl}-benzyl)-2-methoxy-N-methyl-acetamide]	150 to 151.2
COCC(=O)N(C)Cc1cccc(CN(C)c2nc(=O)c3c(OC)c(OC)c(OC)cc3[nH]2)c1 [Example 120, 2-Methoxy-N-methyl-N-(3-{[methyl-(5,6,7-trimethoxy-4-oxo-1,4-dihydro-quinazolin-2-yl)-amino]-methyl}-benzyl)-acetamide]	115 to 117
CCN(CCOC)Cc1cccc(CN(C)c2nc(=O)c3c(C)c(OC)c(OC)cc3[nH]2)c1 [Example 121, 2-[(3-{[Ethyl(2-methoxy-ethyl)-amino]-methyl}-benzyl)-methyl-azmino]-6,7-dimethoxy-5-methyl-1H-quinazolin-4-one]	121.8 to 122.3
COc1cc2[nH]c(N(C)Cc3cccc(CN4CCCC4)c3)nc(=O)c2c(C)c1OC [Example 122, 6,7-Dimethoxy-5-methyl-2-[methyl-(3-pyrrolidin-1-ylmethyl-benzyl)-amino]-1H-quinazolin-4-one]	163.9 to 164.5
COc1cc2[nH]c(N(C)Cc3cccc(S(C)(=O)=O)c3)nc(=O)c2c(C)c1OC [Example 128, 2-[(3-Methanesulfonyl-benzyl)-methyl-amino]-6,7-dimethoxy-5-methyl-1H-quinazolin-4-one]	269.5 to 271.5
COc1cc2[nH]c(N(C)Cc3cccc(S(C)(=O)=O)c3)nc(=O)c2c(OC)c1OC [Example 129, 2-[(3-Methanesulfonyl-benzyl)-methyl-amino]-5,6,7-trimethoxy-1H-quinazolin-4-one]	231.5 to 232.9
COc1cc2[nH]c(N(C)Cc3cccc(S(=O)(=O)N(C)C)c3)nc(=O)c2c(OC)c1OC [Example 130]	199.9 to 204
COCCNS(=O)(=O)c1cccc(CN(C)c2nc(=O)c3c(C)c(OC)c(OC)cc3[nH]2)c1 [Example 131, 3-{[(6,7-Dimethoxy-5-methyl-4-oxo-1,4-dihydro-quinazolin-2-yl)-methyl-amino]-methyl}-N-(2-methoxy-ethyl)-benzenesulfonamide]	163 to 164.9
COCCNS(=O)(=O)c1cccc(CN(C)c2nc(=O)c3c(OC)c(OC)c(OC)cc3[nH]2)c1 [Example 132, N-(2-Methoxy-ethyl)-3-{[methyl-(5,6,7-trimethoxy-4-oxo-1,4-dihydro-quinazolin-2-yl)-amino]-methyl}-benzenesulfonamide]	176.9 to 179.1
COc1cc2[nH]c(N(C)Cc3cccc(C(=O)O)c3)nc(=O)c2c(C)c1OC [Example 134, 3-{[(6,7-Dimethoxy-5-methyl-4-oxo-1,4-dihydro-quinazolin-2-yl)-methyl-amino]-methyl}-benzoic acid]	283.1 to 286.2
CNC(=O)c1cccc(CN(C)c2nc(=O)c3c(C)c(OC)c(OC)cc3[nH]2)c1 [Example 136, 3-{[(6,7-Dimethoxy-5-methyl-44-oxo-1,4-dihydro-quinazolin-2-yl)-methyl-amino]-methyl}-N-methyl-benzamide]	243.3 to 245.1
CNC(=O)c1cccc(CN(C)c2nc(=O)c3c(OC)c(OC)c(OC)cc3[nH]2)c1 [Example 137, N-Methyl-3-{[methyl-(5,6,7-trimethoxy-4-oxo-1,4-dihydro-quinazolin-2-yl)-amino]-methyl}-benzamide]	217.9 to 219.1
COc1cc2[nH]c(N(C)Cc3cccc(O)c3)nc(=O)c2c(C)c1OC [Example 154, 2-[(3-Hydroxy-benzyl)-methyl-amino]-6,7-dimethoxy-5-methyl-1H-quinazolin-4-one]	252.9 to 254.35
COc1cc2[nH]c(N(C)Cc3cccc(O)c3)nc(=O)c2c(OC)c1OC [Example 155, 2-[(3-Hydroxy-benzyl)-methyl-amino]-5,6,7-trimethoxy-1H-quinazolin-4-one]	212.3 to 215.1
COc1cc2[nH]c(N(C)Cc3cccc(OCC(=O)O)c3)nc(=O)c2c(C)c1OC [Example 157, (3-{[(6,7-Dimethoxy-5-methyl-4-oxo-1,4-dihydro-quinazolin-2-yl)-methyl-amino]-methyl}-phenoxy)-acetic acid]	> 300
COc1cc2[nH]c(N(C)Cc3cccc(OCC(=O)O)c3)nc(=O)c2c(OC)c1OC [Example 158, (3-{[Methyl-(5,6,7-trimethoxy-4-oxo-1,4-dihydro-quinazolin-2-yl)-amino]-methyl}-phenoxy)-acetic acid]	> 300
COCCOc1cccc(CN(C)c2nc(=O)c3c(C)c(OC)c(OC)cc3[nH]2)c1 [Example 160, 6,7-Dimethoxy-2-{[3-(2-methoxy-ethoxy)-benzyl]-methyl-amino}-5-methyl-1H-quinazolin-4-one]	176.6 to 177.9
